Measurements: US20080221330A1, “Mutilin-Derivative Substituted at Position 12” (priority 2004, published 2008)
Structures can show the parent of a compound that is named as a salt.

How the values were obtained:
[1] = test system: S. aureus 209P; assay: Minimum inhibitory concentration (MIC) by NCCLS agar dilution technique; format: cell-based
Experimental: (§1) The minimum inhibitory concentration (MIC) was determined for each compound by NCCLS agar dilution technique (Methods for dilution antimicrobial susceptibility tests for bacteria that grow aerobically; approved standard-sixth edition. […] The results are shown in Table below and indicate that the compounds of the present invention have high antimicrobial activity.

[2] = test system: S. pneumoniae IID 553; assay: as above; format: cell-based
Experimental: as §1

| Structure (SMILES) | minimum inhibitory concentration (MIC), in vitro antimicrobial activity [1] | minimum inhibitory concentration (MIC), in vitro antimicrobial activity [2] |
| --- | --- | --- |
| CC1C(O)C(C)(C)CC(OC(=O)NC(=O)C2CN3CCC2C3)C2(C)C(C)CCC13CCC(=O)C32.Cl [Example 2, 14-{(3R,4S)-1-azabicyclo[2.2.1]heptane-3-carbonyl}carbamoyl-12-desethenyl-12-methylmutilin hydrochloride] | 0.125 | 1 |
| C=CCC1(C)CC(OC(=O)NC(=O)C2CN3CCC2C3)C2(C)C(C)CCC3(CCC(=O)C32)C(C)C1O.Cl [Example 4, 14-{(3R,4S)-1-azabicyclo[2.2.1]heptane-3-carbonyl}carbamoyl-12-desethenyl-12-(1-propene-3-yl)mutilin hydrochloride] | 0.125 | 0.5 |
| CCC[C@]1(C)C[C@@H](OC(=O)NC(=O)[C@H]2CN3CC[C@@H]2C3)[C@@]2(C)C3C(=O)CCC3(CC[C@H]2C)[C@@H](C)[C@@H]1O (stereo partly drawn) [Example 17, 14-{(3R,4S)-1-azabicyclo[2.2.1]heptane-3-carbonyl}carbamoyl-12-desethenyl-12-propylmutilin hydrochloride] | 0.125 | 2 |
| CCCC[C@]1(C)C[C@@H](OC(=O)NC(=O)[C@H]2CN3CC[C@@H]2C3)[C@@]2(C)C3C(=O)CCC3(CC[C@H]2C)[C@@H](C)[C@@H]1O (stereo partly drawn) [Example 18, 12-butyl-14-{(3R,4S)-1-azabicyclo[2.2.1]heptane-3-carbonyl}car bamoyl-12-desethenylmutilin] | 0.125 | 2 |
| C/C=C/C[C@]1(C)C[C@@H](OC(=O)NC(=O)[C@H]2CN3CC[C@@H]2C3)[C@@]2(C)C3C(=O)CCC3(CC[C@H]2C)[C@@H](C)[C@@H]1O (stereo partly drawn) [Example 20, 14-{(3R,4S)-1-azabicyclo[2.2.1]heptane-3-carbonyl}carbamoyl-12-[(E)-2-butene-4-yl]-12-desethenylmutilin] | 0.06 | 0.5 |
| C=C[C@]1(C)C[C@@H](OC(=O)CSCCN(CC)CC)[C@]2(C)[C@H](C)CC[C@]3(CCC(=O)[C@H]32)[C@@H](C)[C@@H]1O [tiamulin, reference compound] | 0.06-0.125 | 1-2 |
